# Results from the kinase profiling compilation of Christmann-Franck et al. (2016).
# What was measured:
# Assay in all cases: radiometric filter-binding kinase assay, Kinase HotSpot
# Details in all cases: compound 0.5 µM; ATP 10 µM
# RPS6KA4 KD2 (human) = RPS6KA4 KD2 (human) (UniProt O75676)
# PDGFRA (human) = PDGFRA (human) (UniProt P16234)
# CSNK1D (human) = CSNK1D (human) (UniProt P48730)
# HIPK4 (human) = HIPK4 (human) (UniProt Q8NE63)
# AKT2 (human) = AKT2 (human) (UniProt P31751)
# NEK3 (human) = NEK3 (human) (UniProt P51956)
# EPHA5 (human) = EPHA5 (human) (UniProt P54756)
# RPS6KB1 (human) = RPS6KB1 (human) (UniProt P23443)
# PNCK (human) = PNCK (human) (UniProt Q6P2M8)
# MAP4K4 (human) = MAP4K4 (human) (UniProt O95819)
# AXL (human) = AXL (human) (UniProt P30530)
# RPS6KA2 KD1 KD2 (human) = RPS6KA2 KD1 KD2 (human) (UniProt Q15349)
# TTK (human) = TTK (human) (UniProt P33981)
# DYRK2 (human) = DYRK2 (human) (UniProt Q92630)
# BMX (human) = BMX (human) (UniProt P51813)
# ULK2 (human) = ULK2 (human) (UniProt Q8IYT8)
# ROCK2 (human) = ROCK2 (human) (UniProt O75116)
# FYN (human) = FYN (human) (UniProt P06241)
# CDK2 CCNE1 (human) = CDK2 CCNE1 (human) (UniProt P24941+P24864)
# CDC42BPA (human) = CDC42BPA (human) (UniProt Q5VT25)
# MAPK10 (human) = MAPK10 (human) (UniProt P53779)
# CAMK1D (human) = CAMK1D (human) (UniProt Q8IU85)
# FLT1 (human) = FLT1 (human) (UniProt P17948)
# CDK7 CCNH MNAT1 (human) = CDK7 CCNH MNAT1 (human) (UniProt P50613+P51948+P51946)
# [1] = target: TYK2 JH1 catalytic (human) (UniProt P29597)
# EPHA3 (human) = EPHA3 (human) (UniProt P29320)
# ABL2 (human) = ABL2 (human) (UniProt P42684)
# NEK4 (human) = NEK4 (human) (UniProt P51957)
# CSNK2A1 (human) = CSNK2A1 (human) (UniProt P68400)
# MYLK2 (human) = MYLK2 (human) (UniProt Q9H1R3)
# DSTYK (human) = DSTYK (human) (UniProt Q6XUX3)
# CDK4 CCND3 (human) = CDK4 CCND3 (human) (UniProt P30281+P11802)
# PRKCE (human) = PRKCE (human) (UniProt Q02156)
# CSNK1G2 (human) = CSNK1G2 (human) (UniProt P78368)
# STK24 (human) = STK24 (human) (UniProt Q9Y6E0)
# SLK (human) = SLK (human) (UniProt Q9H2G2)
# SRPK1 (human) = SRPK1 (human) (UniProt Q96SB4)
# SRC (human) = SRC (human) (UniProt P12931)
# ADRBK1 (human) = ADRBK1 (human) (UniProt P25098)
# FGFR3 (human) = FGFR3 (human) (UniProt P22607)
# DAPK2 (human) = DAPK2 (human) (UniProt Q9UIK4)
# Chain of DYRK2 (human) (Q92630 whole entry, looked up): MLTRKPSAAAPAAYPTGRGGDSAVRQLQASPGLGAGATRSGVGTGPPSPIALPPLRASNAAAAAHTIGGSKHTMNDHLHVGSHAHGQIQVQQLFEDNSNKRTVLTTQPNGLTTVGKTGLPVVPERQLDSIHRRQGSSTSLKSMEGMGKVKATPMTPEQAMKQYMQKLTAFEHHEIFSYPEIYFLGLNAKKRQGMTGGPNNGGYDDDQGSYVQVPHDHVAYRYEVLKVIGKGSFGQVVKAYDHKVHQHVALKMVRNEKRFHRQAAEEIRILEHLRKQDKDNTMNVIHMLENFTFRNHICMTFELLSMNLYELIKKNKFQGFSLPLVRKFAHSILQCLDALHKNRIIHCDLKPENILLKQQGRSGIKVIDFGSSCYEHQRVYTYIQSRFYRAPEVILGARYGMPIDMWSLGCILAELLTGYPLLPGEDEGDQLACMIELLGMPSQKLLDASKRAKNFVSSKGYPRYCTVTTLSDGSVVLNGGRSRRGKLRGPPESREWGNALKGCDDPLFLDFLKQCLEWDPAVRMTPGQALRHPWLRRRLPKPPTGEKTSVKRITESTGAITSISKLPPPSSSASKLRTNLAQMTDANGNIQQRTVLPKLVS
# Chain of BMX (human) (P51813 whole entry, looked up): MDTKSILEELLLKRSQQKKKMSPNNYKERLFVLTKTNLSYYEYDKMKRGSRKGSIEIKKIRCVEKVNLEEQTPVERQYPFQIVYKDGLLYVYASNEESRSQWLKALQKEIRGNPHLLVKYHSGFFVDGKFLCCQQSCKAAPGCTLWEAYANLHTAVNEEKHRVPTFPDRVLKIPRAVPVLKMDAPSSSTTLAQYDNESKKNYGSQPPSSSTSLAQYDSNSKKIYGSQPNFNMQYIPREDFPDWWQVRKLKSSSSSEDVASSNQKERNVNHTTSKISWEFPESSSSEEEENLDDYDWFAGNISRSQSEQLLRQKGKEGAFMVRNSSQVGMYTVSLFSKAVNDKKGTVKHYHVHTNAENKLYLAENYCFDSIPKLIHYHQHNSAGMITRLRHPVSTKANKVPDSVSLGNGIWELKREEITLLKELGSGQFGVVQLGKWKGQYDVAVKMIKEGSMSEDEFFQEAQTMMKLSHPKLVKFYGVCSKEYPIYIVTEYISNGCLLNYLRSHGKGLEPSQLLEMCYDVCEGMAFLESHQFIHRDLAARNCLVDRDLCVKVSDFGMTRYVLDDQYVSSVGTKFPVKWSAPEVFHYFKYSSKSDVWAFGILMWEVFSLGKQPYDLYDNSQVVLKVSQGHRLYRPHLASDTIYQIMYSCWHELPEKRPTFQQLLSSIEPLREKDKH
# Chain of EPHA5 (human) (P54756 whole entry, looked up): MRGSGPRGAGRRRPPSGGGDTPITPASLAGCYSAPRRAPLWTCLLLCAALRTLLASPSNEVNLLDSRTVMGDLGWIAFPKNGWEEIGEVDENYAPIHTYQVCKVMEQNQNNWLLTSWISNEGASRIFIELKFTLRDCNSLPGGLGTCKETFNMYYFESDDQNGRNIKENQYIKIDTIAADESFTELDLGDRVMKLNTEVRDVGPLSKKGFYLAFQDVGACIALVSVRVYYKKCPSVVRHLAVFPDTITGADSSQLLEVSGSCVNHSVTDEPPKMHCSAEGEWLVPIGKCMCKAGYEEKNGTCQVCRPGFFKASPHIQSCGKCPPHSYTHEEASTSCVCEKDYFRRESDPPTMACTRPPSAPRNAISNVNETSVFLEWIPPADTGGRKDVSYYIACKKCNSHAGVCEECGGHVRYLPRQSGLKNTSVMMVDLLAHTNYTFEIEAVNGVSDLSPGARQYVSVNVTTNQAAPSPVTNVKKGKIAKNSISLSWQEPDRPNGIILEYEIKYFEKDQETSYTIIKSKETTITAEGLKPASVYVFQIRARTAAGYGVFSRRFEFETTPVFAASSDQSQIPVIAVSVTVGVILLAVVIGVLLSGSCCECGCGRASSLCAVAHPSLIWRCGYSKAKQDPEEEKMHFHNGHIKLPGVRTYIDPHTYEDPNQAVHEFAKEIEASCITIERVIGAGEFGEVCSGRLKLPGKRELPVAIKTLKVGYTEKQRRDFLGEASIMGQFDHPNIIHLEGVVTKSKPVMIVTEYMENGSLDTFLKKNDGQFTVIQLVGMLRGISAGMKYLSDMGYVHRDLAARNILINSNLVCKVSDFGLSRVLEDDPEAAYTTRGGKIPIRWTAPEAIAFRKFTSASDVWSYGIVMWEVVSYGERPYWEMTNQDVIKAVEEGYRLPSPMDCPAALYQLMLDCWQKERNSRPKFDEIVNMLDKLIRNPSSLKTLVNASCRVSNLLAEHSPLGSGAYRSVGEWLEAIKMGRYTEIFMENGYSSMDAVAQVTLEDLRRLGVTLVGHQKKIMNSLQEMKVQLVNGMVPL
# Chain of SRC (human) (P12931 whole entry, looked up): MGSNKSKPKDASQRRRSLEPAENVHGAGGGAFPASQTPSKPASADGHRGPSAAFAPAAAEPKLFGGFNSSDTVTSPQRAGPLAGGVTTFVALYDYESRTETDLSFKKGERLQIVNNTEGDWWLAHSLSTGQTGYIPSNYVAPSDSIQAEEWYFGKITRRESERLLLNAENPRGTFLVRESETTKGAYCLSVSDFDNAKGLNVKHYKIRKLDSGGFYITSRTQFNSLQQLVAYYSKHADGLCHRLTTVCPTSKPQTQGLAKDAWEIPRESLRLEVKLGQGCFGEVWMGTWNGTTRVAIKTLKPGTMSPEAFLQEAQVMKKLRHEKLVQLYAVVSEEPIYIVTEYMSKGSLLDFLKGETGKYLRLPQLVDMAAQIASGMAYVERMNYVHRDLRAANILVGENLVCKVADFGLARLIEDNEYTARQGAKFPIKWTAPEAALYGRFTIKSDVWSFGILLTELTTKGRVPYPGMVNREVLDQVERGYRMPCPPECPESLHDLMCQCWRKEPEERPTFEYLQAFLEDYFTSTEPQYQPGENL
# Chain of PNCK (human) (Q6P2M8 whole entry, looked up): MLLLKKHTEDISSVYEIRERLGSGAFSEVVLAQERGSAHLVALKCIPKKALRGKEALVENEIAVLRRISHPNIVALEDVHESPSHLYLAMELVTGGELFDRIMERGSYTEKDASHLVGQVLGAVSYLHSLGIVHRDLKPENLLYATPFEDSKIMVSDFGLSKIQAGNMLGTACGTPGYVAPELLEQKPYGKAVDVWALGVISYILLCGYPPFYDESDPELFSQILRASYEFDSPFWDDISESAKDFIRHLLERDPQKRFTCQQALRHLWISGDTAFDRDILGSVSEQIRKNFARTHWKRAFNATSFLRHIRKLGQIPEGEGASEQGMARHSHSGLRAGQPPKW
# Chain of CSNK1G2 (human) (P78368 whole entry, looked up): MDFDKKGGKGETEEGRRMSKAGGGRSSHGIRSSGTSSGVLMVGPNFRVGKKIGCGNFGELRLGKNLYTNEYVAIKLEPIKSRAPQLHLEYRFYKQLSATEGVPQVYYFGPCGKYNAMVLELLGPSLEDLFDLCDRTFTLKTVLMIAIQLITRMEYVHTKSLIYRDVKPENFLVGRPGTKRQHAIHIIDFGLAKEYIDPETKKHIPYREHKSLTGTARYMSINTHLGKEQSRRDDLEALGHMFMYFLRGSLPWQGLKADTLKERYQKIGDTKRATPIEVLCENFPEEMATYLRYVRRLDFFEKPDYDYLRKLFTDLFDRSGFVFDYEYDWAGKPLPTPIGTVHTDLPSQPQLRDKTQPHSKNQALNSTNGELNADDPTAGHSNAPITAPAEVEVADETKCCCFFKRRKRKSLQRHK
# Chain of PRKCE (human) (Q02156 whole entry, looked up): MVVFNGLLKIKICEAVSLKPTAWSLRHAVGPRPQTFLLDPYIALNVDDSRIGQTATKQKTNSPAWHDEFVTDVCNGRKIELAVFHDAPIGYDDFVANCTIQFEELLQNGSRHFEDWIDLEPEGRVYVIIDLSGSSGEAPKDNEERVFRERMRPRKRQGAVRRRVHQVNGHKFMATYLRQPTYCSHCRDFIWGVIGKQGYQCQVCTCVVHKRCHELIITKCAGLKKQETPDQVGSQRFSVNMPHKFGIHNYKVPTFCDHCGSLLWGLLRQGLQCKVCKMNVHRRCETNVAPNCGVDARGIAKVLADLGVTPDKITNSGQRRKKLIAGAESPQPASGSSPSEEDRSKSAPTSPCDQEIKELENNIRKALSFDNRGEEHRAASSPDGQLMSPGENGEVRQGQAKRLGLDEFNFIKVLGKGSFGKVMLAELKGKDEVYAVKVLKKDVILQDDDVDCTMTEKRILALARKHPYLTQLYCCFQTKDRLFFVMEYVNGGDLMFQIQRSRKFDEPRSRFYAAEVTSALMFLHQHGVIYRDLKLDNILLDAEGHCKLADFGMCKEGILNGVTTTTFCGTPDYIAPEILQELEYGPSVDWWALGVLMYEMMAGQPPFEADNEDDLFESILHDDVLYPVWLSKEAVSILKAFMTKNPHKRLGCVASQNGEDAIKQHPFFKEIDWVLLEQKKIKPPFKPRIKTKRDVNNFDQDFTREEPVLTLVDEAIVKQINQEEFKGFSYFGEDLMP
# Chain of MYLK2 (human) (Q9H1R3 whole entry, looked up): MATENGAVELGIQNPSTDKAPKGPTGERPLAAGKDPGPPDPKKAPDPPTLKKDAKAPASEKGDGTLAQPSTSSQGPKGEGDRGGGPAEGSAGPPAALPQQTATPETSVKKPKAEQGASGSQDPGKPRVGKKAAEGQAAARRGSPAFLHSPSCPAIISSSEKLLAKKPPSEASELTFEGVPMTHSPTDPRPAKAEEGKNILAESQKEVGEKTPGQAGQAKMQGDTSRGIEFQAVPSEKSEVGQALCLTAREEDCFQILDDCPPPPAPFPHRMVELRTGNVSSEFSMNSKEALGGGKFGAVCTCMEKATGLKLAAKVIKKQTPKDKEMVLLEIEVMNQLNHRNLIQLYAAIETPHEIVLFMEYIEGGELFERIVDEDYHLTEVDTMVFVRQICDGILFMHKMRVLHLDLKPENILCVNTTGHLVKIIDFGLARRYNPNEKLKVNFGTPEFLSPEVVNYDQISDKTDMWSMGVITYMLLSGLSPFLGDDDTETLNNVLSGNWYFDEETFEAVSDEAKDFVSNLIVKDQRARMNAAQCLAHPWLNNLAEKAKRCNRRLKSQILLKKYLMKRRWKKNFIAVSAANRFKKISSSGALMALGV
structure (smiles),measurement,setting,value
O=C1Nc2ccccc2/C1=C\c1c(Cl)[nH]c2ccccc12,residual activity,RPS6KA4 KD2 (human),93.6%
same,residual activity,PDGFRA (human),88.7%
same,residual activity,CSNK1D (human),90.5%
same,residual activity,HIPK4 (human),98.8%
same,residual activity,AKT2 (human),96.8%
same,residual activity,NEK3 (human),91.2%
same,residual activity,EPHA5 (human),83.4%
same,residual activity,RPS6KB1 (human),99.7%
same,residual activity,PNCK (human),92.9%
same,residual activity,MAP4K4 (human),75.7%
same,residual activity,AXL (human),97.8%
same,residual activity,RPS6KA2 KD1 KD2 (human),81.1%
same,residual activity,TTK (human),101%
same,residual activity,DYRK2 (human),103%
same,residual activity,BMX (human),99.8%
same,residual activity,ULK2 (human),99.7%
same,residual activity,ROCK2 (human),90.2%
same,residual activity,FYN (human),101%
same,residual activity,CDK2 CCNE1 (human),79.9%
same,residual activity,CDC42BPA (human),95.7%
same,residual activity,MAPK10 (human),103%
same,residual activity,CAMK1D (human),102%
same,residual activity,FLT1 (human),88.6%
same,residual activity,CDK7 CCNH MNAT1 (human),99.7%
same,residual activity,[1],110%
same,residual activity,EPHA3 (human),95.1%
same,residual activity,ABL2 (human),91.4%
same,residual activity,NEK4 (human),97.7%
same,residual activity,CSNK2A1 (human),89.4%
same,residual activity,MYLK2 (human),94.6%
same,residual activity,DSTYK (human),95.7%
same,residual activity,CDK4 CCND3 (human),97.4%
same,residual activity,PRKCE (human),95.1%
same,residual activity,CSNK1G2 (human),96.3%
same,residual activity,STK24 (human),81.5%
same,residual activity,SLK (human),93.5%
same,residual activity,SRPK1 (human),94.2%
same,residual activity,SRC (human),78.5%
same,residual activity,ADRBK1 (human),98.9%
same,residual activity,FGFR3 (human),101%
same,residual activity,DAPK2 (human),96.8%
O=c1cc(N2CCNCC2)oc2c(-c3ccccc3)cccc12,residual activity,RPS6KA4 KD2 (human),117%
same,residual activity,PDGFRA (human),97.4%
same,residual activity,CSNK1D (human),99.5%
same,residual activity,HIPK4 (human),96.9%
same,residual activity,AKT2 (human),100%
same,residual activity,NEK3 (human),106%
same,residual activity,EPHA5 (human),109%
same,residual activity,RPS6KB1 (human),102%
same,residual activity,PNCK (human),99.8%
same,residual activity,MAP4K4 (human),92.7%
same,residual activity,AXL (human),117%
same,residual activity,RPS6KA2 KD1 KD2 (human),106%
same,residual activity,TTK (human),91.4%
same,residual activity,DYRK2 (human),96.8%
same,residual activity,BMX (human),98%
same,residual activity,ULK2 (human),108%
same,residual activity,ROCK2 (human),87.5%
same,residual activity,FYN (human),104%
same,residual activity,CDK2 CCNE1 (human),91.6%
same,residual activity,CDC42BPA (human),107%
same,residual activity,MAPK10 (human),85%
same,residual activity,CAMK1D (human),82%
same,residual activity,FLT1 (human),86.6%
same,residual activity,CDK7 CCNH MNAT1 (human),99.3%
same,residual activity,[1],98.5%
same,residual activity,EPHA3 (human),88.5%
same,residual activity,ABL2 (human),99.5%
same,residual activity,NEK4 (human),86.4%
same,residual activity,CSNK2A1 (human),89.9%
same,residual activity,MYLK2 (human),97.3%
same,residual activity,DSTYK (human),92.8%
same,residual activity,CDK4 CCND3 (human),101%
same,residual activity,PRKCE (human),104%
same,residual activity,CSNK1G2 (human),101%
same,residual activity,STK24 (human),89.6%
same,residual activity,SLK (human),105%
same,residual activity,SRPK1 (human),106%
same,residual activity,SRC (human),91.2%
same,residual activity,ADRBK1 (human),109%
same,residual activity,FGFR3 (human),96.3%
same,residual activity,DAPK2 (human),94%
